Source: US20260151492A1 (priority 2022, published 2026)
Like-named read-outs stand apart in the source and are kept apart here.

What was measured:
DRD2L [1] = target: T1, DRD2L (Homo sapiens, UniProt P14416); details: statement on ketamine, no own data shown; cited from earlier work
Sigma 2 [2] = target: T2, Sigma 2 (Homo sapiens, UniProt Q5BJF2); details: literature (Pergolizi, 2023; Bonaventura, 2021); cited from earlier work
Mecp2-null mice = details: cited from earlier work
Opiate μ = Opiate μ (Homo sapiens, UniProt P35372); test: Opiate μ binding assay
Chain of Opiate μ (P35372 whole entry): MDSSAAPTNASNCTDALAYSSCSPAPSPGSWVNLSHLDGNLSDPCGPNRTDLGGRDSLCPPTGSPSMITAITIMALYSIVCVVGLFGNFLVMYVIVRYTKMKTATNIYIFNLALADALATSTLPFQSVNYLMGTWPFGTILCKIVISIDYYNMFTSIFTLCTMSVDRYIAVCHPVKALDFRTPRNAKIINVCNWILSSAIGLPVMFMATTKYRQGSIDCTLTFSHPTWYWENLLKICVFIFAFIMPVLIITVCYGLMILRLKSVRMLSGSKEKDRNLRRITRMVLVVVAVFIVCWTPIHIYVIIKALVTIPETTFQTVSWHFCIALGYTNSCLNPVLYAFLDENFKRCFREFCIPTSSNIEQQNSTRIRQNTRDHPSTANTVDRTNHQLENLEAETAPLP

Opiate k = Opiate k (Homo sapiens, UniProt P41145); test: Opiate k binding assay
Chain of Opiate k (P41145 whole entry): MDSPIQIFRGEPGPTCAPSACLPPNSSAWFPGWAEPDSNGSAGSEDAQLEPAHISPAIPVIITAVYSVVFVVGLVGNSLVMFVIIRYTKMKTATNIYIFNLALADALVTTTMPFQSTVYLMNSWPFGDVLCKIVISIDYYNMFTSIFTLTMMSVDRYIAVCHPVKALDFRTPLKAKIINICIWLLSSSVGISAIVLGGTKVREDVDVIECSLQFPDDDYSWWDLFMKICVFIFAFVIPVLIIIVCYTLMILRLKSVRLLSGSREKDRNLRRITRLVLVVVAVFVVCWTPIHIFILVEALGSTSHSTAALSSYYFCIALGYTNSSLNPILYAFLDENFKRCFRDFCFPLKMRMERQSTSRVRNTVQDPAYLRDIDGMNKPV

Sigma 2 [3] = target: T2, Sigma 2; test: Sigma 2 binding assay
DRD2L [4] = target: T1, DRD2L; test: D2L human dopamine GPCR cell based agonist cAMP assay
NMDAR 1A/2B = NMDAR 1A/2B (Homo sapiens, UniProt Q05586+Q13224); test: NMDAR 1A/2B antagonist (ion channel blocker) assay; assay type: cell-based
Chain of NMDAR 1A/2B (Q13224 27-1484, other chains not shown): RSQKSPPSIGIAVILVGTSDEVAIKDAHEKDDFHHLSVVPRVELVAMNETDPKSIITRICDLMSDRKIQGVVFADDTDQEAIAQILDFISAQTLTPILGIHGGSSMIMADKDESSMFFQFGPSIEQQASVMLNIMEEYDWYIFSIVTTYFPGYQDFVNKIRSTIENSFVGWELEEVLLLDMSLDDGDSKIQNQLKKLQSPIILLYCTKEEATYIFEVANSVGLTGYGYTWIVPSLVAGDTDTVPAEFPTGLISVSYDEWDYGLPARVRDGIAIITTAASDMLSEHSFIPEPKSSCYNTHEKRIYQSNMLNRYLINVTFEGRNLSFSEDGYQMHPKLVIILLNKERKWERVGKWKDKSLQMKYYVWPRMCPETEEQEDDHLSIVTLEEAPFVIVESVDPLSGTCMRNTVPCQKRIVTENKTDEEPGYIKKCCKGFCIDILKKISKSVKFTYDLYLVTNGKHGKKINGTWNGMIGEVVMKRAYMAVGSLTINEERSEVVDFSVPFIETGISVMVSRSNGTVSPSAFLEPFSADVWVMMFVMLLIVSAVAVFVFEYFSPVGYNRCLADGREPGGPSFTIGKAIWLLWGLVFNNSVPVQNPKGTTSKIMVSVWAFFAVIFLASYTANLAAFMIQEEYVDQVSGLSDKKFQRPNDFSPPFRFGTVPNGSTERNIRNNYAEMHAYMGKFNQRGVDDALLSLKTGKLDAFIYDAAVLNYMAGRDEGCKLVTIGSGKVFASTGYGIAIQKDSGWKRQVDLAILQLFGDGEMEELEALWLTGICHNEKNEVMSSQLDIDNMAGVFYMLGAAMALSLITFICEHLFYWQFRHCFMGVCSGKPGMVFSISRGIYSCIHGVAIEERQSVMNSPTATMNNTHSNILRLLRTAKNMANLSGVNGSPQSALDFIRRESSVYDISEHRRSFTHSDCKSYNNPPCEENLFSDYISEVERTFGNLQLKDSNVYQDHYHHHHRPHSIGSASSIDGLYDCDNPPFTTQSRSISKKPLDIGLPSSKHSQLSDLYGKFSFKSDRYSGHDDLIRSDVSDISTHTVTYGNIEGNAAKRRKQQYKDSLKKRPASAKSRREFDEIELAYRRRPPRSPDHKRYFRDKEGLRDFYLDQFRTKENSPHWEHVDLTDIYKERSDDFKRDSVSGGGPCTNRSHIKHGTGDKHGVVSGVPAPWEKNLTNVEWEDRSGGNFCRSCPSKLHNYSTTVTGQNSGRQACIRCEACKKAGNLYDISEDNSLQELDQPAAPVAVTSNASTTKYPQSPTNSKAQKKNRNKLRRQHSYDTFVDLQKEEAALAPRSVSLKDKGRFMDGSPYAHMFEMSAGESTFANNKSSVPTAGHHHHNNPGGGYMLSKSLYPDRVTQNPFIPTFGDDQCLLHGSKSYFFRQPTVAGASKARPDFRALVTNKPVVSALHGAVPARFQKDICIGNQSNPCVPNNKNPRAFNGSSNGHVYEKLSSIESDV

T1 sequence (P14416 whole entry): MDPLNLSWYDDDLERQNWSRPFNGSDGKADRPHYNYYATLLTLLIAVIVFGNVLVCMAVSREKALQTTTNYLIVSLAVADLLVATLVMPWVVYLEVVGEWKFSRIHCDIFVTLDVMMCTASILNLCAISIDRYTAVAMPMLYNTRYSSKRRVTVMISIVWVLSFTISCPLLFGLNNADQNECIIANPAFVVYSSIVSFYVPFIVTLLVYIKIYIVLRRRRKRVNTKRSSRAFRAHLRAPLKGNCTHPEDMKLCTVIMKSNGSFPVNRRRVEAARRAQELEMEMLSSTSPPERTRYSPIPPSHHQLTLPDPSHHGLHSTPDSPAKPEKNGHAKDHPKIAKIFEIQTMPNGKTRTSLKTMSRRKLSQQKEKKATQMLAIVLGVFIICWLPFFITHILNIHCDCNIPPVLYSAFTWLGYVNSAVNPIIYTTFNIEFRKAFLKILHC
T2 sequence (Q5BJF2 whole entry): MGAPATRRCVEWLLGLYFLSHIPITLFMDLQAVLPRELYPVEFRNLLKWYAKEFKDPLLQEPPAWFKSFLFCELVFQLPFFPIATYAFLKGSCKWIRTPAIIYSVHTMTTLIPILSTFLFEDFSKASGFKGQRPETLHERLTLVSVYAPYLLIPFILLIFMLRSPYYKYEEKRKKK

| Structure (SMILES) | Affinity for dopamine 2 receptors (in words) (DRD2L [1]) | Binding to sigma2 receptors (in words) (Sigma 2 [2]) | Improvement of survival (Mecp2-null mice; 8 mg/kg IP every day for 40 days (total 320 mg/kg), at 80 days post natal) [%] | Efficacy of treatment (in words) (Mecp2-null mice; 8 mg/kg/day ip from day 15 to day 55 (320 mg/kg total)) | Efficacy of treatment (in words) (Mecp2-null mice; 8 mg/kg/day ip from day 30 to day 55 (200 mg/kg total)) | Survival (Mecp2-null mice; after treatment with 320 mg/kg of ketamine, published data) [%] | Ki, Opioid μ receptors (Opiate μ) | IC50 (Opiate k) [µM] | Ki (Opiate k) [µM] | IC50 (Sigma 2 [3]) [µM] | Binding to Dopamine 2 receptors (in words) (DRD2L [4]) | IC50 (NMDAR 1A/2B; IC50, NMDAR 1A/2B antagonist assay, FIG. 15A) [µM] | IC50 (NMDAR 1A/2B; NMDAR 1A/2B Ion channel blocker, Table 5) [µM] |
| --- | --- | --- | --- | --- | --- | --- | --- | --- | --- | --- | --- | --- | --- |
| CNC1(c2ccccc2Cl)CCCCC1=O (racemic) [Ketamine, (R,S)-ketamine] | not shown any affinity | binds sigma2 receptors at mM concentrations | 50 | some efficacy | not effective | 50 | – | – | – | – | – | – | – |
| NC1(c2ccccc2Cl)CCCCC1=O (racemic) [NorKetamine, (R,S)-Norketamine] | – | – | – | – | – | – | does not bind | 667 | 381 | 246 | does not appear to bind | 6.96 | 6.9 |
